The results in this text go back to patent US20230141600A1, “IMIDAZOPYRAZINE DERIVATIVES” (priority 2020, published 2023).

Where a name gives a salt, the structure may show the parent alone.

In one assay the test system is Acinetobacter baumannii ATCC17961. In words: 90% growth inhibitory concentration (IC90) determination, antimicrobial susceptibility testing. The format is cell-based. The following applies: 90% growth inhibition, Iso-Sensitest broth, OD 600 nm over 16 h, 35±2° C.; read-out: ATCC 17961 IC90. A digest of the protocol: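 Twofold serial dilutions (e.g. 50 to 0.097 μM final) in Iso-Sensitest broth, inoculated at ~5×10^5 CFU/ml and incubated at 35±2 °C for 16 h with OD600 read every minute. IC90 taken from growth inhibition during the logarithmic phase.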
`CCc1cc(Nc2nccn3c(-c4ccc(OC(F)F)c(F)c4F)cnc23)ccc1C(=O)NCCC1CC[N+](C)(CC2CNC2)CC1` (stereo not drawn) [Example 91, N-[2-[1-(azetidin-3-ylmethyl)-1-methyl-piperidin-1-ium-4-ylethyl]-4-[[3-[4-(difluoromethoxy)-2,3-difluoro-phenyl]imidazo[1,2-a]pyrazin-8-yl]amino]-2-ethyl-benzamide Diformate]: the IC90 (in general, the concentration needed for an effect of 90%) worked out at 834 nM.

The assay is the same for the next values; noted with them: Acinetobacter baumannii, ATCC17961, 16 h, 90% growth inhibition, Iso-Sensitest broth, OD 600 nm over 16 h, 35±2° C.; read-out: ATCC 17961 IC90.
Regarding `CCc1cc(Nc2nccn3c(-c4ccc(OC(F)F)c(F)c4F)cnc23)ccc1C(=O)NCCCCC[N+](C)(CC1CNC1)CC1CNC1` [Example 89, Bis(azetidin-3-ylmethyl)-[5-[[4-[[3-[4-(difluoromethoxy)-2,3-difluoro-phenyl]imidazo[1,2-a]pyrazin-8-yl]amino]-2-ethyl-benzoyl]amino]pentyl]-methyl-ammonium bis(2,2,2-trifluoroacetate)], the IC90 amounted to 634 nM.
On to `CCc1cc(Nc2nccn3c(-c4ccc(OC(F)F)c(F)c4F)cnc23)ccc1C(=O)NCCC(=O)N1CC[N+](C)(CC2CNC2)CC1` [Example 92, N-[3-[4-(Azetidin-3-ylmethyl)-4-methyl-piperazin-4-ium-1-yl]-3-oxo-propyl]-4-[[3-[4-(difluoromethoxy)-2,3-difluoro-phenyl]imidazo[1,2-a]pyrazin-8-yl]amino]-2-ethyl-benzamide bis(2,2,2-trifluoroacetate)], for which the IC90 was found to be 332 nM.
Turning to `CCc1cc(Nc2nccn3c(-c4ccc(OC(F)F)c(F)c4F)cnc23)ccc1C(=O)N1CCN(C(=O)C2CC[N+](C)(CC3CNC3)CC2)CC1C(=O)OC` (stereo not drawn) [Example 93, Methyl 4-[1-(azetidin-3-ylmethyl)-1-methyl-piperidin-1-ium-4-carbonyl]-1-[4-[[3-[4-(difluoromethoxy)-2,3-difluoro-phenyl]imidazo[1,2-a]pyrazin-8-yl]amino]-2-ethyl-benzoyl]piperazine-2-carboxylate bis(2,2,2-trifluoroacetate)], the IC90 was 909 nM.
On the same count and under the same terms, with `CCc1cc(Nc2nccn3c(-c4ccc(OC(F)F)c(F)c4F)cnc23)ccc1C(=O)N1CCN(C(=O)C2CC[N+](C)(CC3CNC3)CC2)C(C(=O)OC)C1` (stereo not drawn) [Example 94, methyl 1-[1-(azetidin-3-ylmethyl)-1-methyl-piperidin-1-ium-4-carbonyl]-4-[4-[[3-[4-(difluoromethoxy)-2,3-difluoro-phenyl]imidazo[1,2-a]pyrazin-8-yl]amino]-2-ethyl-benzoyl]piperazine-2-carboxylate tris(2,2,2-trifluoroacetate)] the figure was 457 nM.
As for `CCc1cc(Nc2nccn3c(-c4ccc(OC(F)F)c(F)c4F)cnc23)ccc1C(=O)N1CC2(C1)CN(C(=O)C1CC[N+](C)(CC3CCNC3)CC1)C2` (stereo not drawn) [Example 95, [4-[[3-[4-(difluoromethoxy)-2,3-difluoro-phenyl]imidazo[1,2-a]pyrazin-8-yl]amino]-2-ethyl-phenyl]-[2-[1-methyl-1-(pyrrolidin-3-ylmethyl)piperidin-1-ium-4-carbonyl]-2,6-diazaspiro[3.3]heptan-6-yl]methanone bis(2,2,2-trifluoroacetate)], the IC90 was determined as 725 nM.
Still for that read-out and setting: with `CCc1cc(Nc2nccn3c(-c4ccc(OC(F)F)c(F)c4F)cnc23)ccc1C(=O)NCCCCC[N+](C)(C)CC1CNC1` [Example 96, Azetidin-3-ylmethyl-[5-[[4-[[3-[4-(difluoromethoxy)-2,3-difluoro-phenyl]imidazo[1,2-a]pyrazin-8-yl]amino]-2-ethyl-benzoyl]amino]pentyl]-dimethyl-ammonium bis(2,2,2-trifluoroacetate)] the figure was 171 nM; with `CCc1cc(Nc2nccn3c(-c4ccc(OC(F)F)c(F)c4F)cnc23)ccc1C(=O)N1CCC(C(=O)N2CC[N+](C)(CC3CCNC3)CC2)CC1` (stereo not drawn) [Example 97, [4-[[3-[4-(Difluoromethoxy)-2,3-difluoro-phenyl]imidazo[1,2-a]pyrazin-8-yl]amino]-2-ethyl-phenyl]-[4-[4-methyl-4-(pyrrolidin-3-ylmethyl)piperazin-4-ium-1-carbonyl]-1-piperidyl]methanone 2,2,2-trifluoroacetate], 205 nM; with `CCc1cc(Nc2nccn3c(-c4ccc(OC(F)F)c(F)c4F)cnc23)ccc1C(=O)NCCNC(=O)C1CC[N+](C)(CC2CCNC2)CC1` (stereo not drawn) [Example 102, N-[2-[[4-[[3-[4-(Difluoromethoxy)-2,3-difluoro-phenyl]imidazo[1,2-a]pyrazin-8-yl]amino]-2-ethyl-benzoyl]amino]ethyl]-1-methyl-1-(pyrrolidin-3-ylmethyl)piperidin-1-ium-4-carboxamide bis(2,2,2-trifluoroacetate)], 223 nM.
In the case of `C[N+]1(CC2CCNC2)CCC(C(=O)N2CCN(C(=O)c3ccc(Nc4nccn5c(-c6ccc(OC(F)F)c(F)c6F)cnc45)cc3F)CC2)CC1` (stereo not drawn) [Example 103, [4-[[3-[4-(Difluoromethoxy)-2,3-difluoro-phenyl]imidazo[1,2-a]pyrazin-8-yl]amino]-2-fluoro-phenyl]-[4-[1-methyl-1-(pyrrolidin-3-ylmethyl)piperidin-1-ium-4-carbonyl]piperazin-1-yl]methanone 2,2,2-trifluoroacetate], the IC90 came to 77.9 nM.
With `CCc1cc(Nc2nccn3c(-c4ccc(OC)c(F)c4F)cnc23)ccc1C(=O)NCCCCC[N+](C)(CCCCN)CC(=O)O` (stereo not drawn) [Example 105, 4-aminobutyl-(carboxymethyl)-[5-[[4-[[3-(2,3-difluoro-4-methoxy-phenyl)imidazo[1,2-a]pyrazin-8-yl]amino]-2-ethyl-benzoyl]amino]pentyl]-methyl-ammonium Formate], the IC90 turned out to be 144 nM.
Regarding `CCc1cc(Nc2nccn3c(-c4ccc(OC)c(F)c4F)cnc23)ccc1C(=O)NCCCCC[N+](C)(CC(=O)O)CC1CNC1` (stereo not drawn) [Example 106, Azetidin-3-ylmethyl-(carboxymethyl)-[5-[[4-[[3-(2,3-difluoro-4-methoxy-phenyl)imidazo[1,2-a]pyrazin-8-yl]amino]-2-ethyl-benzoyl]amino]pentyl]-methyl-ammonium Formate], the IC90 is 241 nM.
For `CCc1cc(Nc2nccn3c(-c4ccc(OC)c(F)c4F)cnc23)ccc1C(=O)NCCCCC[N+](C)(CCCC(=O)O)CC1CNC1` (stereo not drawn) [Example 107, Azetidin-3-ylmethyl-(3-carboxypropyl)-[5-[[4-[[3-(2,3-difluoro-4-methoxy-phenyl)imidazo[1,2-a]pyrazin-8-yl]amino]-2-ethyl-benzoyl]amino]pentyl]-methyl-ammonium 2,2,2-trifluoroacetate], the IC90 worked out at 434 nM.
On to `C[N+](C)(C)CCN[C@H]1C[C@@H](NC(=O)c2ccc(Nc3nccn4c(-c5c[nH]nc5C(F)(F)F)cnc34)cc2Cl)C1` [Example 108, 2-[[3-[[2-chloro-4-[[3-[3-(trifluoromethyl)-1H-pyrazol-4-yl]imidazo[1,2-a]pyrazin-8-yl]amino]benzoyl]amino]cyclobutyl]amino]ethyl-trimethyl-ammonium Formate], for which the IC90 came out at 1590 nM.
`CCc1cc(Nc2nccn3c(-c4cn(CC#N)nc4C(F)(F)F)cnc23)ccc1C(=O)NCCCCC[N+](C)(CC(=O)O)CC1CNC1` (stereo not drawn) [Example 109, Azetidin-3-ylmethyl-(carboxymethyl)-[5-[[4-[[3-[1-(cyanomethyl)-3-(trifluoromethyl)pyrazol-4-yl]imidazo[1,2-a]pyrazin-8-yl]amino]-2-ethyl-benzoyl]amino]pentyl]-methyl-ammonium Formate]: the IC90 was determined as 3830 nM.
For `CCc1cc(Nc2nccn3c(-c4cn(CC#N)nc4C(F)(F)F)cnc23)ccc1C(=O)NCCCCC[N+](C)(C)CC(=O)O` [Example 110, Carboxymethyl-[5-[[4-[[3-[1-(cyanomethyl)-3-(trifluoromethyl)pyrazol-4-yl]imidazo[1,2-a]pyrazin-8-yl]amino]-2-ethyl-benzoyl]amino]pentyl]-dimethyl-ammonium Formate], the IC90 was found to be 4300 nM.
`Cc1cc(Nc2nccn3c(-c4cn(C)nc4C(F)(F)F)cnc23)ccc1C(=O)N1CCN(C(=O)C[N+](C)(C)C)CC1` [Example 111, Trimethyl-[2-[4-[2-methyl-4-[[3-[1-methyl-3-(trifluoromethyl)pyrazol-4-yl]imidazo[1,2-a]pyrazin-8-yl]amino]benzoyl]piperazin-1-yl]-2-oxo-ethyl]ammonium Formate]: the 90% effect concentration (IC90) was determined as 2800 nM.
As for `CCc1cc(Nc2nccn3c(-c4ccc(OC)c(F)c4F)cnc23)ccc1C(=O)NCCCCC[N+](C)(CC(=O)O)CC(=O)O` [Example 112, bis(carboxymethyl)-[5-[[4-[[3-(2,3-difluoro-4-methoxy-phenyl)imidazo[1,2-a]pyrazin-8-yl]amino]-2-ethyl-benzoyl]amino]pentyl]-methyl-ammonium 2,2,2-trifluoroacetate], the IC90 worked out at 2560 nM.
Take `CCc1cc(Nc2nccn3c(-c4cn(CC(F)F)nc4C(F)(F)F)cnc23)ccc1C(=O)NCCCCC[N+](C)(C)CC(=O)O` [Example 113, Carboxymethyl-[5-[[4-[[3-[1-(2,2-difluoroethyl)-3-(trifluoromethyl)pyrazol-4-yl]imidazo[1,2-a]pyrazin-8-yl]amino]-2-ethyl-benzoyl]amino]pentyl]-dimethyl-ammonium Formate]: the IC90 came to 2480 nM.

The assay is the same for the next values; noted with them: Acinetobacter baumannii, ATCC17961, 16 h, read-out: ATCC 17961 IC90.
In the case of `CCc1cc(Nc2nccn3c(-c4ccc(OC(F)F)c(F)c4F)cnc23)ccc1C(=O)NCCC1C[N+](C)(CC2CNC2)C1` (stereo not drawn) [Example 90, N-[2-[1-(azetidin-3-ylmethyl)-1-methyl-azetidin-1-ium-3-yl]ethyl]-4-[[3-[4-(difluoromethoxy)-2,3-difluoro-phenyl]imidazo[1,2-a]pyrazin-8-yl]amino]-2-ethyl-benzamide Diformate], the IC90 was found to be 320 nM.
In the case of `CCc1cc(Nc2nccn3c(-c4ccc(OC)c(F)c4F)cnc23)ccc1C(=O)NCCCCC[N+](C)(CCCN)CC(=O)O` (stereo not drawn) [Example 104, 3-aminopropyl-(carboxymethyl)-[5-[[4-[[3-(2,3-difluoro-4-methoxy-phenyl)imidazo[1,2-a]pyrazin-8-yl]amino]-2-ethyl-benzoyl]amino]pentyl]-methyl-ammonium Formate], the IC90 came to 118 nM.
